Experimental data published in US8759342B2, “Benzo[1,4]oxazin-3-one, benzo[1,4]thiazin-3-one and quinolin-2-one urotensin II receptor antagonists” (Janssen Pharmaceutica NV, priority 2006, dated 2014).
Where two headings read alike, the source gives them in different places. Each block holds one compound with its values, some of them ahead of it.

Key:
[1] = test system: streptozotocin-induced diabetic rats; conditions: long-term treatment; cited from earlier work
[2] = target: T1, rat GPR14 (U-II receptor) (Rattus norvegicus, UniProt P49684); conditions: agonist; calcium mobilization; read-out: FLIPR EC50; cited from earlier work
T1 construct: expressed in transfected cells
T1 sequence (P49684 1-386): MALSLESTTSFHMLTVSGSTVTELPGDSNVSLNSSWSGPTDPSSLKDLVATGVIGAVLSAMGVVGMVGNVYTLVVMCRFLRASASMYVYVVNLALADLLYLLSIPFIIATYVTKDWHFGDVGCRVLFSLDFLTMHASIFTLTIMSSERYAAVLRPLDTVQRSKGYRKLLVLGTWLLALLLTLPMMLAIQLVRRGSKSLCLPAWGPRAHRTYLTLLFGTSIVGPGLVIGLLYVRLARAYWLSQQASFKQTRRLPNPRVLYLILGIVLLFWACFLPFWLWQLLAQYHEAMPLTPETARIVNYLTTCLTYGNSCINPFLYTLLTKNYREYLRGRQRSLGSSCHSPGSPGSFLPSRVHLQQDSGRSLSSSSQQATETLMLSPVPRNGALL

[3] = target: T2, (Rattus norvegicus, UniProt P49684); conditions: read-out: rU-II Ki; cited from earlier work
T2 sequence (P49684 1-386): T1 sequence (P49684 1-386)

isolated arterial rings [4] = conditions: rats; read-out: EC50, contraction of isolated arterial rings; cited from earlier work
isolated arterial rings [5] = conditions: humans; read-out: EC50, contraction of isolated arterial rings; cited from earlier work
[6] = target: T1, rat GPR14 (U-II receptor); assay: Calcium flux assay (FLIPR); type: cell-based; conditions: Inhibition of acetyl-cyclic[Cys-Phe-Trp-Lys-(2-Nal)-Cys]-NH2 (1 nM) induced Ca2+ mobilization (FLIPR) in CHO cells transfected with rat UII receptor; 5 min incubation
In short: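 Stable CHO cell line expressing cloned rat U-II receptor, seeded 24 h before assay, loaded with FLIPR calcium dye in HBSS/20 mM HEPES/0.1% BSA/2.5 mM probenecid, pH 7.4, for 1 hr at 37° C. Calcium mobilization read at room temperature (23° C.).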

Human UII receptors = target: T3, Human UII receptors (Homo sapiens, UniProt Q9UKP6); assay: Human radioligand binding assay, (125I)-U-II on HSMM; conditions: 0.150 nM (125I)-U-II, intact Human Skeletal Muscle Myoblasts, 3 hrs, 25° C.; read-out: Ki
T3 construct: host or cells: Human Skeletal Muscle Myoblasts (HSMM), intact adherent cells
T3 sequence (Q9UKP6 1-389): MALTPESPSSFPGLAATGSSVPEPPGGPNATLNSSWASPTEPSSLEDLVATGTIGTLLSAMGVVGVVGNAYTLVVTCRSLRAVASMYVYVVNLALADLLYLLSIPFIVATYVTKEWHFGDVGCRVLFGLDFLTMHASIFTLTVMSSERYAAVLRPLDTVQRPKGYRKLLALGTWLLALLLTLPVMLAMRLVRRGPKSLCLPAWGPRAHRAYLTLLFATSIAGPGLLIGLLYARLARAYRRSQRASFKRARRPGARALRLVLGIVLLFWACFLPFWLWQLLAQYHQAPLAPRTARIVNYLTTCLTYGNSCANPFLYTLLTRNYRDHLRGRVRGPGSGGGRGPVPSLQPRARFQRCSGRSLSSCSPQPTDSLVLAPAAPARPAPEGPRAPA
Experimental: Human Skeletal Muscle Myoblasts (HSMM) were obtained from Cambrex, and were cultured according to manufacturer's instruction. Cell viability was examined by trypan blue exclusion. Cells at less than 4 passages were used in all studies. […] The binding medium used was Dulbecco's modified Eagle's medium (DMEM) containing 2 mg/ml BSA and 25 mM HEPES (pH 7.4). […] The cells were washed 4× with the binding medium and solubilized in 1% SDS and 0.5 N NaOH. Radioactivity was quantified by gamma counting.

melting point: 243 to 245 °C
Compound: CN(C)C(=O)C1(c2ccc(Cl)cc2)CCN(CCN2C(=O)CCc3ccccc32)CC1

Compound: Cc1cc(NC(=O)NCCN2CCC(O)(Cc3ccccc3)CC2)c2ccccc2n1 [palosuran]
development of proteinuria and renal damage [1]: delayed the development of proteinuria and renal damage
glycemia, glycosylated hemoglobin, and serum lipids [1]: slowed the increase in glycemia, glycosylated hemoglobin, and serum lipids
insulin [1]: increased insulin
renal blood flow [1]: increased renal blood flow
survival [1]: improved survival

Compound: acetyl-cyclic[Cys-Phe-Trp-Lys-(2-Nal)-Cys]-NH2 [(Ac)-CFWK(2-NaI)C—NH2, agonist cyclic peptide used to induce Ca2+ mobilization in the FLIPR assay]
EC50 [2]: 0.54 ± 0.2 nM
Ki [3]: 0.12 ± 0.05 nM

Compound: AGTAD-cyclo(CFWKYC)-V [Goby U-II, Urotensin-II isolated from the urophysis of the goby fish as a 12-mer]
EC50 (isolated arterial rings [4]): < 1 nM
EC50 (isolated arterial rings [5]): < 1 nM

IC50 [6]: 100 nM
Ki (Human UII receptors): 40 nM
Compound: O=C(NCCCCCNS(=O)(=O)Cc1ccccc1)c1cc(Cl)ccc1C1CCN(CCN2C(=O)COc3ccccc32)CC1 [Cpd 78, 5-chloro-2-{1-[2-(3-oxo-2,3-dihydro-benzo[1,4]oxazin-4-yl)-ethyl]-piperidin-4-yl}-N-(5-phenylmethanesulfonylamino-pentyl)-benzamide]

Compound: O=C(NCCc1ccccc1)c1cc(Cl)ccc1C1CCN(CCN2C(=O)COc3ccccc32)CC1 [Cpd 57, 5-chloro-2-{1-[2-(3-oxo-2,3-dihydro-benzo[1,4]oxazin-4-yl)-ethyl]-piperidin-4-yl}-N-phenethyl-benzamide]
IC50 [6]: 1300 nM
Ki (Human UII receptors): 190 nM

IC50 [6]: 330 nM
Ki (Human UII receptors): 32 nM
Compound: CC(C)(C)CC(=O)N1CCC(CNC(=O)c2cc(Cl)ccc2C2CCN(CCN3C(=O)COc4ccccc43)CC2)CC1 [Cpd 65, 5-chloro-N-[1-(3,3-dimethyl-butyryl)-piperidin-4-ylmethyl]-2-{1-[2-(3-oxo-2,3-dihydro-benzo[1,4]oxazin-4-yl)-ethyl]-piperidin-4-yl}-benzamide]
